In patent publication US10004701B2, “Methods and compositions for treating infection” (UNIVERSITY OF ROCHESTER, priority 2012, dated 2018) one finds MIC and fold induction data, which are given here for eleven compounds.

Converted amounts (≈) assume the structure as drawn. Where two headings read alike, the source gives them in different places.

The subject of one test is S. aureus. The test is described as follows: Minimum Inhibitory Concentration (MIC) testing, terfenadine study. The following applies: Staphylococcus aureus, 16 h. Format: cell-based.
The subject of test [1] is A. baumannii strain 98-37-09. The experiment in a line: AK assay 384-well format, Prestwick library screening. As to conditions: Acinetobacter baumannii, 983709, 3 h, 50 μM final drug concentration. It is filed as cell-based, Acinetobacter baumannii.
The subject of the next test is E. faecium. The description is as above. As to conditions: Enterococcus faecium, 3 h, 50 μM final drug concentration. Format: cell-based, Enterococcus faecium.
A further test deals with K. pneumoniae. Described as above. It is filed as cell-based, Klebsiella pneumoniae. As to conditions: Klebsiella pneumoniae, 3 h, 50 μM final drug concentration.
In a further test the test system is P. aeruginosa. Described as above. Format: cell-based, Pseudomonas aeruginosa. The following applies: Pseudomonas aeruginosa, 3 h, 50 μM final drug concentration.
A further test relates to E. cloacae. Described as above. Format: cell-based, Enterobacter cloacae. The following applies: Enterobacter cloacae, 3 h, 50 μM final drug concentration.
Another test concerns E. coli. The description is as above. As to conditions: Escherichia coli, 3 h, 50 μM final drug concentration. It is filed as cell-based, Escherichia coli.
Test [2] relates to S. aureus strain USA300-0114. The description is as above. Format: cell-based, Staphylococcus aureus. As to conditions: Staphylococcus aureus, USA300, 3 h, 50 μM final drug concentration.
Where [3] appears, read: 384-well format, cutoff for positive-scoring molecules 3-fold increase, read-out: AK-based Prestwick Library Screening Results, A. baumannii (increase in extracellular AK activity).
The mark [4] stands for this setting: 384-well format, cutoff for positive-scoring molecules 3-fold increase, read-out: AK-based Prestwick Library Screening Results, E. faecium (increase in extracellular AK activity).
Setting [5] is: 384-well format, cutoff for positive-scoring molecules 3-fold increase, read-out: AK-based Prestwick Library Screening Results, K. pneumoniae (increase in extracellular AK activity).
Setting [6] is: 384-well format, cutoff for positive-scoring molecules 3-fold increase, read-out: AK-based Prestwick Library Screening Results, P. aeruginosa (increase in extracellular AK activity).
The mark [7] stands for this setting: 384-well format, cutoff for positive-scoring molecules 3-fold increase, read-out: AK-based Prestwick Library Screening Results, E. cloacae (increase in extracellular AK activity).
The mark [8] stands for this setting: 384-well format, cutoff for positive-scoring molecules 3-fold increase, read-out: AK-based Prestwick Library Screening Results, E. coli (increase in extracellular AK activity).
Where [9] appears, read: 384-well format, cutoff for positive-scoring molecules 3-fold increase, read-out: AK-based Prestwick Library Screening Results, S. aureus (increase in extracellular AK activity).

In general, MIC refers to the smallest concentration in the dilution series that meets the test's criterion for growth inhibition. For `CC(C)c1ccc(C(O)CCCN2CCC(C(O)(c3ccccc3)c3ccccc3)CC2)cc1` (centres unmarked) [Compound 1, 4-(4-(hydroxydiphenylmethyl)piperidin-1-yl)-1-(4-isopropylphenyl)butan-1-ol], the MIC in the test with S. aureus (S. aureus, MHB, strain not given, read-out: MIC) came to 16 µg/mL (≈ 35 µM).
The compound `CC(C)(C)c1ccc(C(=O)CCCN2CCC(C(O)(c3ccccc3)c3ccccc3)CC2)cc1` [Compound 11, 1-(4-(tert-butyl)phenyl)-4-(4-(hydroxydiphenylmethyl)piperidin-1-yl)butan-1-one] had an MIC against S. aureus of 8 µg/mL (≈ 17 µM).
The same measure, in the same setting: with `CC(C)(C)c1ccc(C(O)CCCN2CCC(C(O)c3ccccc3)CC2)cc1` (mixture of isomers) [Compound 31, 1-(4-(tert-butyl)phenyl)-4-(4-(hydroxy(phenyl)methyl)piperidin-1-yl)butan-1-ol] the figure was 128 µg/mL.
Same read-out and setting: next, `CC(C)(C)c1ccc(C(=O)CN2CCC(C(O)(c3ccccc3)c3ccccc3)CC2)cc1` [Compound 20, 1-(4-(tert-butyl)phenyl)-2-(4-(hydroxydiphenylmethyl)piperidin-1-yl)ethanone]: above 256 µg/mL.
`CC(C)C(=O)Nc1ccc([N+](=O)[O-])c(C(F)(F)F)c1` [Flutamide]: the fold induction at 50 µM in test [1] (384-well format, […], read-out: AK-based Prestwick Library Screening Results, A. baumannii (increase in extracellular AK activity)) is 0.7; in the test on E. faecium (384-well format, […], read-out: AK-based Prestwick Library Screening Results, E. faecium (increase in extracellular AK activity)), 1; in the test with K. pneumoniae (384-well format, […], read-out: AK-based Prestwick Library Screening Results, K. pneumoniae (increase in extracellular AK activity)) it was 0.6; with P. aeruginosa (384-well format, […], read-out: AK-based Prestwick Library Screening Results, P. aeruginosa (increase in extracellular AK activity)), 0.8; in the test with E. cloacae (384-well format, […], read-out: AK-based Prestwick Library Screening Results, E. cloacae (increase in extracellular AK activity)) it was 0.7; in the test with E. coli (384-well format, […], read-out: AK-based Prestwick Library Screening Results, E. coli (increase in extracellular AK activity)), 0.7. The fold induction at 50 µM in test [2] (384-well format, […], read-out: AK-based Prestwick Library Screening Results, S. aureus (increase in extracellular AK activity)) worked out at 0.4.
As to `Nc1[nH]c(=O)ncc1F` [Flucytosine], the fold induction at 50 µM in test [1] (cutoff for positive-scoring molecules 3-fold increase, read-out: AK-based Prestwick Library Screening Results, A. baumannii (fold increase in extracellular AK activity)) came out at 1.2; with E. faecium (cutoff for positive-scoring molecules 3-fold increase, read-out: AK-based Prestwick Library Screening Results, E. faecium (fold increase in extracellular AK activity)), 0.9; in the test with K. pneumoniae (cutoff for positive-scoring molecules 3-fold increase, read-out: AK-based Prestwick Library Screening Results, K. pneumoniae (fold increase in extracellular AK activity)), 0.8; in the test with P. aeruginosa (cutoff for positive-scoring molecules 3-fold increase, read-out: AK-based Prestwick Library Screening Results, P. aeruginosa (fold increase in extracellular AK activity)), 1.1; in the test on E. cloacae (cutoff for positive-scoring molecules 3-fold increase, read-out: AK-based Prestwick Library Screening Results, E. cloacae (fold increase in extracellular AK activity)), 1.8; in the test on E. coli (cutoff for positive-scoring molecules 3-fold increase, read-out: AK-based Prestwick Library Screening Results, E. coli (fold increase in extracellular AK activity)) it was 1.1. For the same compound, the fold induction at 50 µM in test [2] (cutoff for positive-scoring molecules 3-fold increase, read-out: AK-based Prestwick Library Screening Results, S. aureus (fold increase in extracellular AK activity)) worked out at 1.1.
Take `CN(CCCCCCCCCCN(C)C(=O)Oc1cccc([N+](C)(C)C)c1)C(=O)Oc1cccc([N+](C)(C)C)c1` [Demecarium bromide]: the fold induction at 50 µM in test [1] (planktonic, […], read-out: AK-based Prestwick Library Screening Results, A. baumannii (fold increase in extracellular AK activity)) stood at 1.1; in the test on E. faecium (planktonic, […], read-out: AK-based Prestwick Library Screening Results, E. faecium (fold increase in extracellular AK activity)) it was 1; in the test on K. pneumoniae (planktonic, […], read-out: AK-based Prestwick Library Screening Results, K. pneumoniae (fold increase in extracellular AK activity)), 1; with P. aeruginosa (planktonic, […], read-out: AK-based Prestwick Library Screening Results, P. aeruginosa (fold increase in extracellular AK activity)), 1.3; in the test on E. cloacae (planktonic, […], read-out: AK-based Prestwick Library Screening Results, E. cloacae (fold increase in extracellular AK activity)), 2; in the test on E. coli (planktonic, […], read-out: AK-based Prestwick Library Screening Results, E. coli (fold increase in extracellular AK activity)), 1.4. Also, the fold induction at 50 µM in test [2] (planktonic, […], read-out: AK-based Prestwick Library Screening Results, S. aureus (fold increase in extracellular AK activity)) is 0.8.
In the case of `Cn1cnc([N+](=O)[O-])c1Sc1ncnc2nc[nH]c12` [Azathioprine], the fold induction at 50 µM in test [1] (setting [3]) was 0.7; with E. faecium (setting [4]), 0.8; with K. pneumoniae (setting [5]) it was 0.5; with P. aeruginosa (setting [6]), 0.6; in the test on E. cloacae (setting [7]), 0.8; in the test with E. coli (setting [8]) it was 0.6. In addition, in test [2] (setting [9]), the fold induction at 50 µM stood at 0.7.
As for `CNc1ncnc2c1ncn2[C@@H]1O[C@H](CO)[C@@H](O)[C@H]1O` [Compound N6-methyladenosine, N6-methyladenosine], the fold induction at 50 µM in test [1] (planktonic A. baumannii, cutoff for positive-scoring molecules 3-fold increase, read-out: AK-based Prestwick Library Screening Results, A. baumannii (increase in extracellular AK activity)) was found to be 0.6; in the test on E. faecium (planktonic E. faecium, cutoff for positive-scoring molecules 3-fold increase, read-out: AK-based Prestwick Library Screening Results, E. faecium (increase in extracellular AK activity)) it was 0.9; with K. pneumoniae (planktonic K. pneumoniae, cutoff for positive-scoring molecules 3-fold increase, read-out: AK-based Prestwick Library Screening Results, K. pneumoniae (increase in extracellular AK activity)), 0.5; in the test on P. aeruginosa (planktonic P. aeruginosa, cutoff for positive-scoring molecules 3-fold increase, read-out: AK-based Prestwick Library Screening Results, P. aeruginosa (increase in extracellular AK activity)) it was 0.6; in the test on E. cloacae (planktonic E. cloacae, cutoff for positive-scoring molecules 3-fold increase, read-out: AK-based Prestwick Library Screening Results, E. cloacae (increase in extracellular AK activity)), 0.7; with E. coli (planktonic E. coli, cutoff for positive-scoring molecules 3-fold increase, read-out: AK-based Prestwick Library Screening Results, E. coli (increase in extracellular AK activity)), 0.6. For the same compound, the fold induction at 50 µM in test [2] (planktonic S. aureus, cutoff for positive-scoring molecules 3-fold increase, read-out: AK-based Prestwick Library Screening Results, S. aureus (increase in extracellular AK activity)) turned out to be 0.5.
On to `O=C(N[C@H](CO)[C@H](O)c1ccc([N+](=O)[O-])cc1)C(Cl)Cl` [Chloramphenicol], for which the fold induction at 50 µM in test [1] (setting [3]) is 1; in the test with E. faecium (setting [4]), 0.8; with K. pneumoniae (setting [5]), 0.2; in the test with P. aeruginosa (setting [6]) it was 0.8; with E. cloacae (setting [7]) it was 1.5; in the test with E. coli (setting [8]) it was 0.7. Besides, the fold induction at 50 µM in test [2] (setting [9]) was 9.7.
Regarding `Nc1ccc(S(N)(=O)=O)cc1` [Sulfanilamide], the fold induction at 50 µM in test [1] (planktonic, cutoff for positive-scoring molecules 3-fold increase, read-out: AK-based Prestwick Library Screening Results, A. baumannii (fold increase in extracellular AK activity)) amounted to 1.5; in the test on E. faecium (planktonic, cutoff for positive-scoring molecules 3-fold increase, read-out: AK-based Prestwick Library Screening Results, E. faecium (fold increase in extracellular AK activity)), 0.9; in the test on K. pneumoniae (planktonic, cutoff for positive-scoring molecules 3-fold increase, read-out: AK-based Prestwick Library Screening Results, K. pneumoniae (fold increase in extracellular AK activity)), 0.6; with P. aeruginosa (planktonic, cutoff for positive-scoring molecules 3-fold increase, read-out: AK-based Prestwick Library Screening Results, P. aeruginosa (fold increase in extracellular AK activity)) it was 0.5; with E. cloacae (planktonic, cutoff for positive-scoring molecules 3-fold increase, read-out: AK-based Prestwick Library Screening Results, E. cloacae (fold increase in extracellular AK activity)), 0.4; with E. coli (planktonic, cutoff for positive-scoring molecules 3-fold increase, read-out: AK-based Prestwick Library Screening Results, E. coli (fold increase in extracellular AK activity)), 0.5. Also, in test [2] (planktonic, cutoff for positive-scoring molecules 3-fold increase, read-out: AK-based Prestwick Library Screening Results, S. aureus (fold increase in extracellular AK activity)), the fold induction at 50 µM worked out at 0.4.
